# Assays:
# [1] = tested on: fatty acid synthase (FAS) mRNA; assay: FAS mRNA levels in HepG2 cells by quantitative RT-PCR; assay type: cell-based, human; conditions: 30 μM (0.03 mM) compound, 6 hours, qRT-PCR
# Procedure: (§1) HepG2, HEK293 cells, and MEFs were cultured at 37° C. and 5% CO2 in Dulbecco's modified Eagle's medium (DMEM; Sigma), supplemented with […] of penicillin-streptomycin (GIBCO-BRL), 10% (or otherwise indicated) fetal bovine serum (Hyclone), and 20 mM Glutamine.
# (§2) Total RNA was extracted from cells with Trizol (Invitrogen, Carlsbad, Calif.) and quantified with an Agilent 2100 Bioanalyzer (Agilent Technologies, Santa Clara, Calif.). For mRNA quantification, 2 ug of RNA was converted to cDNA with a High Capacity cDNA Reverse Transcription kit (Applied Biosystems, Foster City, Calif.), and transcript levels of relevant genes were determined by real-time, quantitative PCR with an ABI 7300 Real Time PCR machine according to the manufacturers instructions.
# (§3) HepG2 and FAO cells as well as primary rat hepatocytes were cultured at 37° C. and 5% CO2 in Dulbecco's modified Eagle's medium (DMEM; Sigma, St. Louis, Mo.), supplemented with […] of penicillin-streptomycin (P/S, GIBCO-BRL), 10% fetal bovine serum (FBS, Hyclone) and 20 mM glutamine. Primary rat hepatocytes were isolated using a method as described previously (20), and plated onto collagen-coated 6-cm dishes (3×10^6 cell/dish) in DMEM containing 10% FBS; […] P/S, 20 mM glutamine, 100 nM insulin and 1 μM dexamethasone. After 4 hours of culture, non-adherent cells were washed away with 1×PBS. The remaining hepatocytes were cultured or treated in regular DMEM medium.
# (§4) Total RNA was extracted from cells with Trizol (Invitrogen, Life Technologies, Carlsbad, Calif.) and quantified with an Agilent 2100 Bioanalyzer. For mRNA quantification, 2 μg of RNA was converted to cDNA with a High Capacity cDNA Reverse. Transcription kit (Applied Biosystems, Foster City, Calif.), and transcript levels of relevant genes were determined by real-time, quantitative PCR with an ABI 7300 Real Time PCR machine according to the manufacturer's instructions. (PCR primer information is available upon request)
# [2] = tested on: HMG-CoA reductase (HMGCR) mRNA; assay: HMG-CoA reductase mRNA levels in HepG2 cells by quantitative RT-PCR; assay type: cell-based, human; conditions: 6 hours; for HMG-CoA reductase mRNA levels: 0.03 mM compound
# Procedure: as §1, §2, §3, §4
# HepG2 cells [3] = assay: Cytotoxicity in HepG2 cells; assay type: cell-based, human; conditions: data not shown
# 293 cells = assay: Cytotoxicity in 293 cells; assay type: cell-based; conditions: 0.1 mM BF-102; data not shown
# HepG2 cells [4] = assay: Palmitate synthesis in HepG2 cells (deuterated water GC/MS); assay type: cell-based, human; conditions: HepG2 cells as printed
# Procedure: (§5) Quantitative measurement of fatty acids and cholesterol synthesis Fatty acids and cholesterol synthesis rate was determined using the deuterated water—GC/MS method as described previously.
# HepG2 cells [5] = assay: Cholesterol synthesis in HepG2 cells (deuterated water GC/MS); assay type: cell-based, human; conditions: 20 μM, 12 hours
# Procedure: as §5
# FAO cells [6] = assay: Palmitate synthesis rate in FAO cells (deuterium enrichment, GC/MS); assay type: cell-based, rat; conditions: 20 μM, 12 hours, 100 nM insulin
# Procedure: as §3, with “medium. Fatty acids and cholesterol synthesis rate was, determined using the deuterium enrichment method followed by GC/MS analysis. Briefly, cells were cultured in regular DMEM medium containing 10% 2H2O for 18 hours. Fatty acids and cholesterol were purified by extraction with organic solvents chloroform/methanol and quantitatively measured by GC/MS. The synthesis rates were presented as the percentage of ^2H-containing palmitate or cholesterol in total amount of palmitate or cholesterol.” for “medium.”
# FAO cells [7] = assay: Cholesterol synthesis rate in FAO cells (deuterium enrichment, GC/MS); assay type: cell-based, rat; conditions: 20 μM, 12 hours, 100 nM insulin
# Procedure: as §3, with “medium. Fatty acids and cholesterol synthesis rate was, determined using the deuterium enrichment method followed by GC/MS analysis. Briefly, cells were cultured in regular DMEM medium containing 10% 2H2O for 18 hours. Fatty acids and cholesterol were purified by extraction with organic solvents chloroform/methanol and quantitatively measured by GC/MS. The synthesis rates were presented as the percentage of ^2H-containing palmitate or cholesterol in total amount of palmitate or cholesterol.” for “medium.”
# [8] = Toxic responses in mice under standard chow, osmotic pumps; assay type: in vivo; conditions: one week, total of 0.6 mg/g body weight by osmotic pumps
# HMGCR mRNA = assay: Hepatic HMGCR mRNA in HFD-fed mice by qRT-PCR; assay type: in vivo, C57BL/6J mice; conditions: 0.3 mg/g body weight, 1 week, osmotic pumps
# Procedure: (§6) Male C57BI/6J mice were purchased from The Jackson Laboratory at 8 weeks of age and were rendered insulin resistant by feeding an HFD (60% kcal from fat; D12492, Research Diets) for 4 weeks. Then the treatment with BF-102 or BF175 was performed for 1 week (osmotic pumps) or several weeks (in HFD).
# as §4
# FAS mRNA = assay: Hepatic FAS mRNA in HFD-fed mice by qRT-PCR; assay type: in vivo, C57BL/6J mice; conditions: 0.3 mg/g body weight, 1 week, osmotic pumps
# Procedure: as §6, §4
SMILES,FAS mRNA levels [1],FAS mRNA levels ([1]; listed as BF-02),HMG-CoA reductase mRNA levels [2],"mRNA levels of HMGCR, dose dependence ([2]; indicated concentrations)",cytotoxicity in HepG2 cells (HepG2 cells [3]; 0.1 mM BF-102),toxicity to HepG2 cells (HepG2 cells [3]; at the doses used),cytotoxicity in 293 cells (293 cells),palmitate synthesis (HepG2 cells [4]),cholesterol synthesis (HepG2 cells [5]),synthesis rate of palmitate (FAO cells [6]),synthesis rate of cholesterol (FAO cells [7]),toxic responses [8],reduction of hepatic mRNA levels of HMGCR vs DMSO controls (HMGCR mRNA),hepatic FAS mRNA levels (FAS mRNA)
"CC1(C)OB(c2ccc(C=Cc3ccc(O)cc3)cc2)OC1(C)C [BF-102, 4-{2-[4-(4,4,5,5-Tetramethyl-[1,3,2]dioxaborolan-2-yl)-phenyl]-vinyl}-phenol]",strong inhibition,significant decrease,strong inhibition,dose-dependently decrease,no significant cytotoxicity,not toxic,no significant cytotoxicity,inhibits,inhibits,significantly decrease,dramatically decrease,no apparent toxic responses,~5 fold,significantly down regulated
"CC1(C)OB(c2ccc(C=Cc3cc(Cl)cc(Cl)c3)cc2)OC1(C)C [MD131, 3,5-dichloro-4/-(4,4,5,5-Tetramethyl-1,3,2-dioxaborolan-2-yl)stilbene]",strong inhibition,–,strong inhibition,–,–,–,–,–,–,–,–,–,–,–

# Source: patent publication US20140051661A1, “NOVEL LIPOGENIC INHIBITORS AND USES THEREOF” (The Texas A&M University System, priority 2011, published 2014)
